{"source": "paper PMC10961402", "about": "“Safety, tolerability, pharmacokinetics and pharmacokinetic-pharmacodynamic modeling of cetagliptin in patients with type 2 diabetes mellitus” (Frontiers in Endocrinology, 2024)", "key": {"[1]": {"experiment": "Preliminary efficacy evaluation (FPG, 2 h PPG, HbA1c, GA)", "type": "in vivo, human", "details": "patients with T2DM", "experimental": "Blood samples for determination of fasting plasma glucose (FPG) and 2 hour postprandial plasma glucose (2 h PPG) were collected on day -2, day 7 and day 14. Additionally, blood samples for determination of glycated Hemoglobin A1C (HbA1c) and glycated Albumin (GA) were collected on day -2 and day 14. The changes of the above indexes relative to pre-treatment baseline (day -2) were evaluated and compared to investigate the preliminary efficacy of investigational product."}, "DPP-4 activity": {"test_system": "DPP-4 activity", "details": "healthy subjects; once-daily oral dose of ≧50 mg, multiple doses; cited from earlier work"}, "plasma DPP-4 activity": {"target": "T1, plasma DPP-4 activity (Homo sapiens, UniProt P27487)", "T1 construct": "The plasma DPP-4 activity was determined using a fluorescent method with the substrate Gly-Pro-7-amide-4-methylcoumarin; from tissue; host or cells: human plasma (K2-EDTA blood from T2DM patients)", "T1 sequence (P27487 39-766 limits assumed)": "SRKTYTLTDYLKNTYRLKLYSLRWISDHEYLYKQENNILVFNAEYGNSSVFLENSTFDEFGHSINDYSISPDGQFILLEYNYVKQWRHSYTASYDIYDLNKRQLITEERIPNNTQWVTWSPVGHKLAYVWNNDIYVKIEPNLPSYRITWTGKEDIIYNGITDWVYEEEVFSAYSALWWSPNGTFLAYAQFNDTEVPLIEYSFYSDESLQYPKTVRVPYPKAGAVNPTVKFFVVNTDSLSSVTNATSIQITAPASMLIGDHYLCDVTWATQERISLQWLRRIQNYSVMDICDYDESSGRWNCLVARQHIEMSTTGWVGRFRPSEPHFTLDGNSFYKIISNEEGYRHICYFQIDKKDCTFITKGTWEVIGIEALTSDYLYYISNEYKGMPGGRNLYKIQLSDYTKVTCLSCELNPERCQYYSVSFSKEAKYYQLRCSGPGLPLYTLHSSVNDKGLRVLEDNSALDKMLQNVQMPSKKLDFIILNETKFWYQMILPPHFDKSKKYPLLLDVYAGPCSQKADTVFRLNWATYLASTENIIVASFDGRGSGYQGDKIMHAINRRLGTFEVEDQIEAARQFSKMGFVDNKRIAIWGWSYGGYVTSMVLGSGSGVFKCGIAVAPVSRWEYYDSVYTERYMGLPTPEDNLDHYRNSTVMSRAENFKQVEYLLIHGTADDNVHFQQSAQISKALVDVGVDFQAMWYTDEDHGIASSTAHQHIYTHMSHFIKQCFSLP", "experiment": "Emax model of plasma concentration vs DPP-4 inhibition", "type": "in vivo", "details": "patients with T2DM"}, "[2]": {"experiment": "Safety and tolerability assessments (adverse events)", "type": "in vivo, human", "details": "patients with T2DM", "experimental": "Safety and tolerability were evaluated by monitoring adverse events (AEs), laboratory tests (including blood routine, urine routine, stool routine, blood biochemical test and coagulation function), vital signs, physical examination, 12-lead electrocardiogram and other indicators. AEs were monitored and collected throughout the study. Descriptive analysis of the type and intensity of AEs were conducted according to NCICTC AE5.0."}, "[3]": {"details": "in vivo", "from_the_text": "A population PK/PD (PopPK/PD) model was developed to describe the relationship between cetagliptin and DPP-4 inhibition. A sequential two-step analysis approach to modeling building was implemented. First, a population PK model was developed, and then parameters were fixed to establish the PopPK/PD model. The nonlinear mixed effect modeling method was used to establish the PopPK/PD model. Model selection criteria were based on goodness-of-fit plots, objective function value (OFV, equal to −2 log-likelihood), Akaike information criteria (AIC), and precision of parameter estimates.\nA total of 560 plasma concentrations of cetagliptin from 32 patients with T2DM were used for PopPK analysis. The structural model was tested using either one- or two-compartment PK models. […]\nThe additive error model (Equation 2), proportional error model (Equation 3), and additive and proportional error model (Equation 4) were evaluated to describe the residual variability: […]\nGoodness-of-fit plots were assessed to describe the adequacy of the final PopPK/PD model, including observations vs. population predictions, observations vs. individual predictions, conditional weighted residuals (CWRES) vs. population predictions, and CWRES vs. time., A bootstrap resampling procedure was performed to assess the stability of the final PopPK/PD model. […]"}, "serum DPP-4 activity": {"test_system": "serum DPP-4 activity", "design": "method as in PMID 22686547", "details": "Zucker Diabetic Fatty rats; preclinical studies (data not published); cited from earlier work"}, "[4]": {"test_system": "glucose, insulin, C-peptide, and glucagon", "experiment": "Oral glucose tolerance test (OGTT): glucose, insulin, C-peptide, glucagon", "type": "in vivo, human", "design": "change of AUEC0-3 h relative to baseline for insulin (OGTT) / change of AUEC0-3 h relative to baseline for C-peptide (OGTT) / change of AUEC0-3 h relative to baseline for glucagon (OGTT) / C-peptide AUEC0-t (OGTT) / glucagon AUEC0-t (OGTT) / insulin AUEC0-t (OGTT): unit not given here", "details": "patients with T2DM; for change of AUEC0-3 h relative to baseline for C-peptide (OGTT) / change of AUEC0-3 h relative to baseline for glucagon (OGTT) / change of AUEC0-3 h relative to baseline for insulin (OGTT) / change of AUEC0-3 h relative to baseline for plasma glucose (OGTT): day 15 vs day -1", "experimental": "To assess the impact of investigational products on glucose, insulin, C-peptide, and glucagon, OGTT tests were conducted on day -1 and day 15 following a fasting period of more than 8 hours. Subjects received a 75 g oral glucose dose and blood samples (1.5 mL for glucose, 3.5 mL for insulin and C-peptide, 2 mL for glucagon) were collected at 0, 0.167, 0.5, 1, 1.5, 2, and 3 h after ingestion of glucose. The PD parameters (AUEC0-t) for glucose, insulin, C-peptide, and glucagon were calculated by using drug effect module of non-compartmental method with Phoenix WinNonlin."}, "plasma active GLP-1": {"test_system": "plasma active GLP-1", "design": "method as in PMID 34965609", "details": "healthy subjects, cited from earlier work"}, "[5]": {"details": "cetagliptin group (50 or 100 mg, n=20) / sitagliptin group (100 mg, n=8), 14 days"}, "[6]": {"details": "50 mg group, day -1 (baseline before dosing)"}, "[7]": {"details": "100 mg group, day -1 (baseline before dosing)"}, "[8]": {"details": "day 15 after 50 mg once daily for 14 days"}, "[9]": {"details": "day 15 after 100 mg once daily for 14 days"}}, "note": "Like-named read-outs stand apart in the source and are kept apart here.", "data": [{"smiles": "C[C@@H]1c2cnc(C(F)(F)F)n2CCN1C(=O)C[C@H](N)Cc1cc(F)c(F)cc1F.O=P(O)(O)O", "note": "[Cetagliptin, cetagliptin]", "values": [{"measurement": "change of FPG relative to baseline (day -2)", "setting": "[1]; 50 mg once daily, day 7", "value": 0.49, "unit": "mmol/L"}, {"measurement": "mean change value of 2h postprandial blood glucose concentration compared with baseline", "setting": "[1]; 50 mg once daily, day 7, 2 h after breakfast", "value": "-1.54 ± 2.25", "unit": "mmol/L"}, {"measurement": "mean change value of 2h postprandial blood glucose concentration compared with baseline", "setting": "[1]; 50 mg once daily, day 7, 2 h after lunch", "value": "-0.29 ± 2.34", "unit": "mmol/L"}, {"measurement": "mean change value of 2h postprandial blood glucose concentration compared with baseline", "setting": "[1]; 50 mg once daily, day 7, 2 h after supper", "value": "-1.30 ± 2.50", "unit": "mmol/L"}, {"measurement": "change of FPG relative to baseline (day -2)", "setting": "[1]; 50 mg once daily, day 14", "value": 0.56, "unit": "mmol/L"}, {"measurement": "change of GA relative to baseline (day -2)", "setting": "[1]; 50 mg once daily, day 14", "value": 0.53, "unit": "%"}, {"measurement": "decrease of HbA1c compared with baseline", "setting": "[1]; 50 mg once daily, day 14", "value": 0.47, "unit": "%"}, {"measurement": "mean change value of 2h postprandial blood glucose concentration compared with baseline", "setting": "[1]; 50 mg once daily, day 14, 2 h after lunch", "value": "-0.66 ± 2.26", "unit": "mmol/L"}, {"measurement": "mean change value of 2h postprandial blood glucose concentration compared with baseline", "setting": "[1]; 50 mg once daily, day 14, 2 h after supper", "value": "-2.64 ± 2.07", "unit": "mmol/L"}, {"measurement": "decrease of 2 h PPG compared with baseline", "setting": "[1]; 50 mg once daily, day 14 after dinner", "value": 2.64, "unit": "mmol/L"}, {"measurement": "change of FPG relative to baseline (day -2)", "setting": "[1]; 100 mg once daily, day 7", "value": -0.11, "unit": "mmol/L"}, {"measurement": "mean change value of 2h postprandial blood glucose concentration compared with baseline", "setting": "[1]; 100 mg once daily, day 7, 2 h after breakfast", "value": "-0.54 ± 2.47", "unit": "mmol/L"}, {"measurement": "mean change value of 2h postprandial blood glucose concentration compared with baseline", "setting": "[1]; 100 mg once daily, day 7, 2 h after lunch", "value": "-0.61 ± 2.16", "unit": "mmol/L"}, {"measurement": "mean change value of 2h postprandial blood glucose concentration compared with baseline", "setting": "[1]; 100 mg once daily, day 7, 2 h after supper", "value": "1.64 ± 3.22", "unit": "mmol/L"}, {"measurement": "change of FPG relative to baseline (day -2)", "setting": "[1]; 100 mg once daily, day 14", "value": 0.43, "unit": "mmol/L"}, {"measurement": "change of GA relative to baseline (day -2)", "setting": "[1]; 100 mg once daily, day 14", "value": -1.70, "unit": "%"}, {"measurement": "decrease of HbA1c compared with baseline", "setting": "[1]; 100 mg once daily, day 14", "value": 0.35, "unit": "%"}, {"measurement": "mean change value of 2h postprandial blood glucose concentration compared with baseline", "setting": "[1]; 100 mg once daily, day 14, 2 h after lunch", "value": "1.16 ± 2.05", "unit": "mmol/L"}, {"measurement": "mean change value of 2h postprandial blood glucose concentration compared with baseline", "setting": "[1]; 100 mg once daily, day 14, 2 h after supper", "value": "2.56 ± 2.48", "unit": "mmol/L"}, {"measurement": "sustained DPP-4 inhibition", "setting": "DPP-4 activity", "value": "≥ 80", "unit": "%"}, {"measurement": "EC50 (plasma concentration producing half the maximum DPP-4 inhibition)", "setting": "plasma DPP-4 activity; Emax model", "value": 5.37, "unit": "ng/mL"}, {"measurement": "Emax (maximum DPP-4 inhibition, Emax model)", "setting": "plasma DPP-4 activity; plasma concentration vs DPP-4 inhibition", "value": 92.47, "unit": "%"}, {"measurement": "intensity of drug-related adverse events", "setting": "[2]; cetagliptin 50 or 100 mg, sitagliptin 100 mg, 14 days", "value": "mild"}, {"measurement": "number of drug-related AEs", "setting": "[2]; [5]", "value": 3, "unit": "AEs"}, {"measurement": "number of subjects reporting drug-related AEs", "setting": "[2]; [5]", "value": 2, "unit": "subjects"}, {"measurement": "serious AEs or withdrawals due to AEs", "setting": "[2]; once daily for 14 days", "value": "no serious AEs or withdraws due to AEs"}, {"measurement": "tvCl2 (typical value of intercompartment clearance)", "setting": "[3]", "value": 9.671, "unit": "L/h"}, {"measurement": "tvV (typical value of volume of central compartment distribution)", "setting": "[3]", "value": 8.668, "unit": "L"}, {"measurement": "inhibition of serum DPP-4 activity", "setting": "serum DPP-4 activity", "value": "≥ 80", "unit": "%"}, {"measurement": "C-peptide AUEC0-t (OGTT)", "setting": "[4]; [6]", "value": "4072.02 ± 1174.82"}, {"measurement": "glucagon AUEC0-t (OGTT)", "setting": "[4]; [6]", "value": "469.51 ± 189.76"}, {"measurement": "glucose AUEC0-t (OGTT)", "setting": "[4]; [6]", "value": "48.65 ± 5.34", "unit": "mmol·h/L"}, {"measurement": "insulin AUEC0-t (OGTT)", "setting": "[4]; [6]", "value": "431.53 ± 271.81"}, {"measurement": "change of AUEC0-3 h relative to baseline for C-peptide (OGTT)", "setting": "[4]; 50 mg once daily", "value": 1851.30}, {"measurement": "change of AUEC0-3 h relative to baseline for glucagon (OGTT)", "setting": "[4]; 50 mg once daily", "value": -72.70}, {"measurement": "change of AUEC0-3 h relative to baseline for insulin (OGTT)", "setting": "[4]; 50 mg once daily", "value": 219.90}, {"measurement": "change of AUEC0-3 h relative to baseline for plasma glucose (OGTT)", "setting": "[4]; 50 mg once daily", "value": -4.97, "unit": "mmol·h/L"}, {"measurement": "C-peptide AUEC0-t (OGTT)", "setting": "[4]; [7]", "value": "6059.64 ± 1263.61"}, {"measurement": "glucagon AUEC0-t (OGTT)", "setting": "[4]; [7]", "value": "503.79 ± 161.61"}, {"measurement": "glucose AUEC0-t (OGTT)", "setting": "[4]; [7]", "value": "40.59 ± 2.87", "unit": "mmol·h/L"}, {"measurement": "insulin AUEC0-t (OGTT)", "setting": "[4]; [7]", "value": "716.44 ± 250.84"}, {"measurement": "change of AUEC0-3 h relative to baseline for C-peptide (OGTT)", "setting": "[4]; 100 mg once daily", "value": 1761.48}, {"measurement": "change of AUEC0-3 h relative to baseline for glucagon (OGTT)", "setting": "[4]; 100 mg once daily", "value": -7.21}, {"measurement": "change of AUEC0-3 h relative to baseline for insulin (OGTT)", "setting": "[4]; 100 mg once daily", "value": 292.18}, {"measurement": "change of AUEC0-3 h relative to baseline for plasma glucose (OGTT)", "setting": "[4]; 100 mg once daily", "value": -2.76, "unit": "mmol·h/L"}, {"measurement": "C-peptide AUEC0-t (OGTT)", "setting": "[4]; [8]", "value": "5923.31 ± 2012.97"}, {"measurement": "glucagon AUEC0-t (OGTT)", "setting": "[4]; [8]", "value": "396.81 ± 51.89"}, {"measurement": "glucose AUEC0-t (OGTT)", "setting": "[4]; [8]", "value": "43.68 ± 8.04", "unit": "mmol·h/L"}, {"measurement": "insulin AUEC0-t (OGTT)", "setting": "[4]; [8]", "value": "651.43 ± 455.05"}, {"measurement": "C-peptide AUEC0-t (OGTT)", "setting": "[4]; [9]", "value": "7821.13 ± 2023.09"}, {"measurement": "glucagon AUEC0-t (OGTT)", "setting": "[4]; [9]", "value": "496.58 ± 158.93"}, {"measurement": "glucose AUEC0-t (OGTT)", "setting": "[4]; [9]", "value": "37.83 ± 5.09", "unit": "mmol·h/L"}, {"measurement": "insulin AUEC0-t (OGTT)", "setting": "[4]; [9]", "value": "1008.62 ± 367.20"}, {"measurement": "accumulation ratios of Rmax and AUEC0-24 h for plasma active GLP-1", "setting": "plasma active GLP-1; 50 mg", "value": "about 1.0"}, {"measurement": "accumulation ratios of Rmax and AUEC0-24 h for plasma active GLP-1", "setting": "plasma active GLP-1; 100 mg", "value": "about 1.0"}]}]}
